# In US20110053873A1, “HSP90 INHIBITORS” (TAKEDA PHARMACEUTICAL COMPANY LIMITED, priority 2008, published 2011):
# Target: T1, HSP90α (Homo sapiens, UniProt P07900, I104V)
# T1 construct: made in house; host or cells: E. coli (BL21)
# Experiment: Enzyme binding (competition fluorescence polarization) assay with TSD-FP probe
# Settings: method of Example A-1; incubation time not stated; read-out: Binding Affinity IC50
# Experimental: The reaction can be followed kinetically using fluorescence (excitation λ=485 nm; emission λ=538 nm). The binding affinity of the test compound to HSP90 is determined by the changes in the polarized fluorescence; the intensity of the polarized fluorescence is proportional to the fraction of bound probe. A novel small molecule fluorescence probe, (S,E)-5-(2-(2-amino-7-(4-fluoro-2-(6-methoxypyridin-2-yl)phenyl)-4-methyl-7,8-dihydroquinazolin-5(6H)-ylideneaminooxy)ethylcarbamoyl)-2-(6-hydroxy-3-oxo-3H-xanthene-9-yl)benzoic acid (TSD-FP probe) was specifically developed for the assay. Inhibition constants (IC50) may be calculated by non-linear curve fitting of the compound concentrations and fluorescence intensities to the standard IC50 equation.
# 1. Enzyme Binding (Fluorescence Polarization) Assay for HSP90 Inhibitors.
# a. Preparation of HSP90c Protein
# This example describes cloning, expression and purification of a protein comprising the N-terminal domain of HSP90α. It should be noted that a variety of other expression systems and hosts are also suitable for the expression of such protein, as would be readily appreciated by one of skill in the art.
# The sequence of human wild-type HSP90α is well known in the art; see, Chen B. et al. Genomics 2005 86:627-637. The gene encoding HSP90α can be isolated from RNA, cDNA or cDNA libraries. In this case, the gene encoding residues 9-236 of image clone 5270926 of HSP90α (ATCC) was isolated. This portion of the gene encoding a section of human HSP90α that includes the N-terminal nucleotide binding domain of human HSP90 was cloned into pET28a vector (Novagen). The DNA sequence of the vector is shown in SEQ ID NO: 1. Expression from this vector produced a protein consisting of the recombinant N-terminal nucleotide binding domain of HSP90α with a cleavable 6×-histidine tag and a cleavage site at the N-terminus. The amino acid sequence of this recombinant protein is shown in SEQ ID NO: 2.
# Recombinant human N-terminal truncated His6-HSP90α was expressed in E. coli (BL21) cells with IPTG induction. Cell paste from 24×60 mL tubes (grown in a multi-tube airlift fermentor) was lysed using an automated sample lyser. Briefly, the pellet in each tube was suspended in 21 mL of lysis buffer consisting of 50 mM Tris pH 7.9, 50 mM NaCl, 1 mM MgCl2, 0.6 g/L Lysozyme (Sigma), 100 μL/L Benzonase (Novagen). […] After incubation, 5 M NaCl was added to bring the final salt concentration to 400 mM. The tubes were sonicated for 50 seconds and then centrifuged at 3400 rpm for 50 min. The supernatants were pooled and 4 ml of ProBond Ni resin (Invitrogen) was added. After at least 30 minutes, the resin was spun down, washed with 25 mM Tris pH 7.6, 400 mM NaCl, 20 mM imidazole, poured into a column and washed with 10 column volumes of the same buffer. The protein was eluted from the column using 3 column volumes of 25 mM Tris pH 7.6, 400 mM NaCl, 400 mM imidazole. The eluate was loaded onto a Supedex 200 column (GE Healthcare) equilibrated with 25 mM Tris pH 7.6, 250 mM NaCl, 0.25 mM TCEP, 1 mM EDTA and peak fractions were pooled and concentrated to ˜6 mg/mL using 10 kDA MWCO centrifugal concentrators (Millipore). Aliquots were flash frozen in liquid nitrogen and stored at −80° C. All purification was done at 4° C.
# b. Preparation of the Fluorescence Polarization Probe.
# A fluorescein labeled small molecule was designed and synthesized as a probe (TSD-FP probe) for the determination of the binding affinity of the test compound to HSP90 proteins. The synthesis of the small molecule, (S,E)-2-amino-7-(4-fluoro-2-(6-methoxypyridin-2-yl)phenyl)-4-methyl-7,8-dihydroquinazolin-5(6H)-one O-2-aminoethyl oxime (Compound 24) was described in Examples 24 and 25 above. The TSD-FP probe was prepared according to the following procedure:
# c. Assaying the In Vitro Enzymatic Activity of HSP90 Inhibitors.
# The inhibitory effect of the compounds of the invention against HSP90α was determined by fluorescence polarization assay.
row,Compound,IC50
1,"COc1cccc(-c2cc(F)ccc2[C@H]2Cc3nc(N)nc(C)c3/C(=N/OC[C@H](O)CO)N2)n1 [Compound 33, (R,Z)-2-Amino-7-(4-fluoro-2-(6-methoxypyridin-2-yl)phenyl)-4-methyl-7,8-dihydropyrido[4,3-d]pyrimidin-5(6H)-one O—(R)-2,3-dihydroxypropyl oxime]",4 nM
2,"COc1cccc(-c2cc(F)ccc2[C@H]2Cc3nc(N)nc(C)c3C(NOCC(CO)CO)=N2)n1 [Compound 35, (R,Z)-2-Amino-7-(4-fluoro-2-(6-methoxypyridin-2-yl)phenyl)-4-methyl-7,8-dihydropyrido[4,3-d]pyrimidin-5(6H)-one O-3-hydroxy-2-(hydroxymethyl)propyl oxime]",13 nM
3,"COc1cccc(-c2cc(F)ccc2[C@H]2Cc3nc(N)nc(C)c3/C(=N/OCC[C@H](O)CO)N2)n1 [Compound 37, (R,Z)-2-amino-7-(4-fluoro-2-(6-methoxypyridin-2-yl)phenyl)-4-methyl-7,8-dihydropyrido[4,3-d]pyrimidin-5(6H)-one O—(S)-3,4-dihydroxybutyl oxime]",6 nM
4,"COc1cccc(-c2cc(F)ccc2[C@H]2Cc3nc(N)nc(C)c3C(NOC3C[C@@H](O)[C@@H](O)C3)=N2)n1 (stereo partly drawn) [Compound 58, (7R,Z)-2-amino-7-(4-fluoro-2-(6-methoxypyridin-2-yl)phenyl)-4-methyl-7,8-dihydropyrido[4,3-d]pyrimidin-5(6H)-one O-(3R,4S)-3,4-dihydroxycyclopentyl oxime]",5 nM
5,"COc1cccc(-c2cc(F)ccc2[C@H]2Cc3nc(N)nc(C)c3C(NOCC3C[C@@H](O)[C@@H](O)C3)=N2)n1 (stereo partly drawn) [Compound 59, (7R,Z)-2-amino-7-(4-fluoro-2-(6-methoxypyridin-2-yl)phenyl)-4-methyl-7,8-dihydropyrido[4,3-d]pyrimidin-5(6H)-one O-((3R,4S)-3,4-dihydroxycyclopentyl)methyl oxime]",8 nM
6,"COc1cccc(-c2cc(F)ccc2[C@H]2Cc3nc(N)nc(C)c3/C(=N/O)N2)n1 [Compound 61, (R,Z)-2-amino-7-(4-fluoro-2-(6-methoxypyridin-2-yl)phenyl)-4-methyl-7,8-dihydropyrido[4,3-d]pyrimidin-5(6H)-one oxime]",3 nM

# More lines, now with the values ahead:
row,IC50,Compound
1,10 nM,"COc1cccc(-c2cc(F)ccc2[C@H]2Cc3nc(N)nc(C)c3C(NOCC3CCC(O)CC3)=N2)n1 (stereo partly drawn) [Compound 65, (R,Z)-2-amino-7-(4-fluoro-2-(6-methoxypyridin-2-yl)phenyl)-4-methyl-7,8-dihydropyrido[4,3-d]pyrimidin-5(6H)-one O-((1s,4S)-4-hydroxycyclohexyl)methyl oxime]"
2,4 nM,"COc1cccc(-c2cc(F)ccc2[C@H]2Cc3nc(N)nc(C)c3C(NOCCCO)=N2)n1 [Compound 78, (R,Z)-2-amino-7-(4-fluoro-2-(6-methoxypyridin-2-yl)phenyl)-4-methyl-7,8-dihydropyrido[4,3-d]pyrimidin-5(6H)-one O-3-hydroxypropyl oxime]"
3,6 nM,"COc1cccc(-c2cc(F)ccc2[C@H]2Cc3nc(N)nc(C)c3/C(=N/OCCCCO)N2)n1 [Compound 79, (R,Z)-2-amino-7-(4-fluoro-2-(6-methoxypyridin-2-yl)phenyl)-4-methyl-7,8-dihydropyrido[4,3-d]pyrimidin-5(6H)-one O-4-hydroxybutyl oxime]"
4,8 nM,"COc1cccc(-c2cc(F)ccc2[C@H]2Cc3nc(N)nc(C)c3C(NOCC(=O)N(C)C)=N2)n1 [Compound 83, (R,Z)-2-(2-amino-7-(4-fluoro-2-(6-methoxypyridin-2-yl)phenyl)-4-methyl-7,8-dihydropyrido[4,3-d]pyrimidin-5(6H)-ylideneaminooxy)-N,N-dimethylacetamide]"
5,4 nM,"COc1cccc(-c2cc(F)ccc2[C@H]2Cc3nc(N)nc(C)c3/C(=N/OCC(=O)N3CC[C@@H](F)C3)N2)n1 [Compound 85, 2-((Z)-((R)-2-amino-7-(4-fluoro-2-(6-methoxypyridin-2-yl)phenyl)-4-methyl-7,8-dihydropyrido[4,3-d]pyrimidin-5(6H)-ylidene)aminooxy)-1-((R)-3-fluoropyrrolidin-1-yl)ethanone]"
6,8 nM,"COc1cccc(-c2cc(F)ccc2[C@H]2Cc3nc(N)nc(C)c3/C(=N/O[C@@H](CCO)C(=O)N(C)C)N2)n1 [Compound 93, (S)-2-((Z)-((R)-2-amino-7-(4-fluoro-2-(6-methoxypyridin-2-yl)phenyl)-4-methyl-7,8-dihydropyrido[4,3-d]pyrimidin-5(6H)-ylidene)aminooxy)-4-hydroxy-N,N-dimethylbutanamide]"
7,13 nM,"COc1cccc(-c2cc(F)ccc2[C@H]2Cc3nc(N)nc(C)c3C(NOCC(=O)N(C)C[C@H](O)CO)=N2)n1 [Compound 96, 2-((Z)-((R)-2-amino-7-(4-fluoro-2-(6-methoxypyridin-2-yl)phenyl)-4-methyl-7,8-dihydropyrido[4,3-d]pyrimidin-5(6H)-ylidene)aminooxy)-N—((S)-2,3-dihydroxypropyl)-N-methylacetamide]"
8,8 nM,"COc1cccc(-c2cc(F)ccc2[C@H]2Cc3nc(N)nc(C)c3/C(=N/OCC(=O)N(C)CCO)N2)n1 [Compound 99, (R,Z)-2-(2-amino-7-(4-fluoro-2-(6-methoxypyridin-2-yl)phenyl)-4-methyl-7,8-dihydropyrido[4,3-d]pyrimidin-5(6H)-ylideneaminooxy)-N-(2-hydroxyethyl)-N-methylacetamide]"

# System: cells
# Experiment: not given
# Settings: cited from earlier work
row,Compound,concentration range of biological effects on cells
1,C#CCCCn1c(Cc2cc(OC)c(OC)c(OC)c2Cl)nc2c(N)nc(F)nc21 [PU24FCl],2-6 μM

# System: HSP90
# Experiment: not given
# Settings: transformed cells vs normal tissues; cited from earlier work
row,Compound,higher affinity for HSP90 from transformed cells compared to that from normal tissues
1,C#CCCCn1c(Cc2cc(OC)c(OC)c(OC)c2Cl)nc2c(N)nc(F)nc21 [PU24FCl],10-50 times
